Measurements as given in patent US9006171B2, “Angiotensin converting enzyme inhibitory peptide” (Kikkoman Corporation, priority 2009, dated 2015).
Non-standard residues stand in square brackets, D forms with d. Residues, ends and D or L forms follow the SMILES beside them. pGlu = O=C1CC[C@@H](C(=O)O)N1

molecular target: T1, ACE (rabbit lung-derived) (Oryctolagus cuniculus, UniProt P12822); test: ACE inhibitory activity (modified method of Yamamoto et al., Hippuryl-His-Leu substrate); format: biochemical; conditions: pH 8.3, 37° C., 30 minutes, chemically synthesized peptides
T1 construct: 0.3 U/ml of ACE (rabbit lung-derived, manufactured by SIGMA); purchased SIGMA; host or cells: rabbit lung (tissue-derived)
T1 sequence (P12822 34-1310): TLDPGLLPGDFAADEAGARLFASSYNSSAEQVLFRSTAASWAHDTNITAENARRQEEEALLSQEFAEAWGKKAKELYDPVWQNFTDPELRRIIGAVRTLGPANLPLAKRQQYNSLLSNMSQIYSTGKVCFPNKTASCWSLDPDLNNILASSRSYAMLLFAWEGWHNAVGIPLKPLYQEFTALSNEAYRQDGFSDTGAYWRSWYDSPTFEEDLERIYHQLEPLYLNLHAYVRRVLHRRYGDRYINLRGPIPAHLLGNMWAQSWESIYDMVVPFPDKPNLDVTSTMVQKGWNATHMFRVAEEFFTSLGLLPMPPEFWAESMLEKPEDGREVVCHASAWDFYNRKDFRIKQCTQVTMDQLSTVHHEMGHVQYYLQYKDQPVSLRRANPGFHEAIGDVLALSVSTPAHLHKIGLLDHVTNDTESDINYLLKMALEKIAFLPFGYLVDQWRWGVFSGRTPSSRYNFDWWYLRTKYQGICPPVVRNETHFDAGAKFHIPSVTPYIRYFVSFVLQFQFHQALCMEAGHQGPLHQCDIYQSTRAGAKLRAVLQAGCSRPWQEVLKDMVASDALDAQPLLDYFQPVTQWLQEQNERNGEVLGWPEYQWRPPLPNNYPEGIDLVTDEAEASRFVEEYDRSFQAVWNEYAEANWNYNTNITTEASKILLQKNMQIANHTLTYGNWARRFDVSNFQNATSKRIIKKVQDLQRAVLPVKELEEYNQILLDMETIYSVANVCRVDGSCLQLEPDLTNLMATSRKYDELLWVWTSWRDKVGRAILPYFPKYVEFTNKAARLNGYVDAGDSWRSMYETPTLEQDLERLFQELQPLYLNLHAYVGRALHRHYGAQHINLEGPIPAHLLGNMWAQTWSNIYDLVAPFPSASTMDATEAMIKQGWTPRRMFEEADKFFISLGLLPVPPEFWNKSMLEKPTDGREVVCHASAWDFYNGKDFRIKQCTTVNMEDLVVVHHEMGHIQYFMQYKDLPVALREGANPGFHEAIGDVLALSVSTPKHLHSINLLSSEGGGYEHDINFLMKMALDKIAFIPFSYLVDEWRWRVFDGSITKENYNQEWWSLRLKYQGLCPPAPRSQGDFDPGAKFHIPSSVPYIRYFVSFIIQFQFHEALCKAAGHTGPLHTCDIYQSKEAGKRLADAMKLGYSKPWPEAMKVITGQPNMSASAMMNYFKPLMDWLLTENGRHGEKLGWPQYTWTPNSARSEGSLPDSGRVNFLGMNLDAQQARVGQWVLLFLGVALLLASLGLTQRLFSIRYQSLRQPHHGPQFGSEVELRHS
Method: ACE inhibitory activity of the peptides obtained by the aforementioned synthesis method was measured. As the measuring method, it was carried out by a method in which the method of Yamamoto et al. (Setsuko Yamamoto et al., Journal of the Japan Society of Chest Diseases, 1980, 18, p. 297-302) was partially modified. Namely, 140 μl of sample solution, 10 μl of enzyme solution (0.3 U/ml of ACE (rabbit lung-derived, manufactured by SIGMA) and 50 mM borate buffer (pH 8.3) were added to 100 μl of a substrate solution (12.5 mM Hippuryl-His-Leu (manufactured by SIGMA), 100 mM borate buffer pH 8.3, 1M NaCl), and the reaction was carried out at 37° C. for 30 minutes. Subsequently, the reaction was stopped by adding 250 μl of 1 N hydrochloric acid and, after stirring by adding 1.5 ml of ethyl acetate and subsequent centrifugation, 1 ml of the ethyl acetate layer was concentrated and dried by centrifugal concentration followed by dissolution in 1 ml of ultrapure water to measure the absorbance at 228 nm. The ACE inhibitory ratio is represented by the following formula. ACE inhibitory ratio (%)={1−(ODs−ODsb)/(ODc−ODcb)}×100
In this connection, ODs is the absorbance when the reaction was carried out by adding the enzyme solution to a sample as described above; ODsb is the absorbance when ultrapure water was added instead of the enzyme solution; ODc is the absorbance when ultrapure water was added instead of the sample solution; and ODcb is the absorbance when ultrapure water was added instead of the enzyme solution and sample solution. Additionally, the concentration of a sample which gives 50% of the enzyme activity inhibitory ratio on this reaction system is regarded as the IC50 value.

IC50 | Structure (SMILES)
25 µM | NC(=O)C[C@H](N)C(=O)N[C@@H](Cc1c[nH]c2ccccc12)C(=O)O [Asn-Trp] (H-Asn-Trp-OH; N-terminus and C-terminus assumed)
106 µM | O=C1CC[C@@H](C(=O)N2CCC[C@H]2C(=O)O)N1 [pyroGlu-Pro] ([pGlu]-Pro-OH; C-terminus assumed)
186 µM | O=C(O)[C@H](Cc1c[nH]c2ccccc12)NC(=O)[C@@H]1CCCN1 [Pro-Trp] (H-Pro-Trp-OH; N-terminus and C-terminus assumed)
35 µM | C[C@@H](O)[C@H](NC(=O)[C@@H](N)Cc1ccc(O)cc1)C(=O)O [Tyr-Thr] (H-Tyr-Thr-OH)
